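Method: 48-hour compound exposure of cells in 96-well plates, five concentrations, linear interpolation of endpoints. Definition used: TGI = concentration required for complete inhibition of growth.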
Experiments:
Test in all cases: DTP human tumour cell line panel, 48 h
A549 NSCLC = tested on: A549 NSCLC
CAKI-1 renal = tested on: CAKI-1 renal
OVCAR-4 ovarian = tested on: OVCAR-4 ovarian
NCI-H522 lung = tested on: NCI-H522 lung
SF-539 CNS = tested on: SF-539 CNS
SNB-19 CNS = tested on: SNB-19 CNS
SK-MEL-5 melanoma = tested on: SK-MEL-5 melanoma
DLD-1 colon = tested on: DLD-1 colon
U251 CNS = tested on: U251 CNS
NCI-H23 lung = tested on: NCI-H23 lung
UACC-257 melanoma = tested on: UACC-257 melanoma
SNB-75 CNS = tested on: SNB-75 CNS
SK-OV-3 ovarian = tested on: SK-OV-3 ovarian
HT29 colon = tested on: HT29 colon

Measured: TGI

O=c1n(CC2CO2)c2ccccc2n1CC1CS1 (centres undefined)
> 100 µM: A549 NSCLC | CAKI-1 renal | OVCAR-4 ovarian | NCI-H522 lung | SF-539 CNS | SNB-19 CNS

COc1ccc(Nc2cnc3cc(N)ccc3n2)cc1OC
> 100 µM: SK-MEL-5 melanoma | DLD-1 colon | U251 CNS | NCI-H23 lung | UACC-257 melanoma | SNB-75 CNS | SK-OV-3 ovarian | HT29 colon

— PubChem BioAssay (NCI)
